The values that follow are results of earlier work, collected in EP0333071A2, “Polypeptides, methods for their preparation, pharmaceutical compositions comprising them and use” (Eisai Co., Ltd., priority 1988, dated 1989).

For this series, the system named is enhancement in the quantity of spontaneous motion induced by methamphethamine. Particulars: general administration; comparison statement for neurotensin or derivatives thereof.

As to neurotensin, the methamphethamine antagonism entry was “hardly exhibit methamphethamine antagonism”.
